Laboratory results taken from US20080299076A1, “Compunds and compositions that cause non-apoptotic cell death and uses thereof” (priority 2006, published 2008).

What was measured:
[1] = test system: BJ-TERT/LT/ST/RAS^V12 cells; assay: Alamar Blue viability assay; type: cell-based, human; settings: BJ-TERT/LT/ST/RAS^V12 cells versus BJ-TERT cells
Protocol: (a) Calu-1 lung carcinoma cells harboring oncogenic KRAS were infected with lentivirus containing shRNAs targeting KRAS or GFP. Sequences of shRNAs are indicated by starting nucleotide (nt) in the KRAS mRNA coding sequence. Cells were treated with erastin and viability measured by Trypan Blue exclusion. (b) Knockdown of KRAS was confirmed by western blot. (c,d) A673 cells harboring oncogenic BRAF were infected with lentiviral shRNAs targeting BRAF exon 5 (c) or the 5′ UTR (d), luciferase (LUC) (c) or GFP (d). Cells were treated with erastin and viability measured using Alamar Blue (c) and Trypan Blue (d). (e) Knockdown of BRAF was confirmed by western blot. […] BJ-TERT/LT/ST/RAS^V12 cells were treated with erastin alone or in with a MEK inhibitor U0126 (20 μM), MEK inhibitor I (10 μM) or MEK 1/2 inhibitor (50 μM). After 48 h, viability was determined using Trypan Blue. (g) Structures of certain erastin and related analogs. (h) and (i) Dose-response curves were measured for erastin A3 and erastin B2 in BJ-TERT/LT/ST/RAS^V12 cells (black squares) or BJ-TERT cells (grey circles). (j) Calu-1 lung carcinoma cells harboring oncogenic KRAS were infected with lentivirus containing shRNAs targeting KRAS or GFP. Sequences of shRNAs are indicated by starting nucleotide (nt) in the KRAS mRNA coding sequence. Cells were treated with erastin and viability (y-axis) measured by Trypan Blue exclusion. Cells were treated with erastin for 24 hours, and percent inhibition of viability (y-axis) measured using Alamar Blue (k) and Trypan Blue (l). (m) Structures of erastin and related analogs. (n) Dose-response curves were measured for erastin A6, erastin B2, erastin A8 and erastin A9 in BJ-TERT/LT/ST/RAS^V12 cells (squares) or BJ-TERT cells (circles) using Alamar Blue.
Alamar Blue metabolism: 10% Alamar Blue was added to assay plates, which were then incubated for an additional 16 hours. Red fluorescence, resulting from reduction of Alamar Blue, was detected on a Victor3 platereader (ex: 530, em: 590).
Table 2. Activity of RAS-selective lethal compound erastin in tumor cell lines. IC50 values (ng/mL) are shown using the Alamar Blue viability assay. BJ engineered tumor cells express TERT, LT, ST, and oncogenic RAS. Isogenic RAS^V12 lacking cells are identical but lack HRAS^V12. BJ-DRD cells are derived from BJ cells and contain TERT, oncogenic RAS, a truncated from of p53 (p53DD) that disrupts the tetramerization of endogenous p53, a CDK4(R24C) mutant resistant to inhibition by p16INK4A and p151NK4B (the major negative regulators of CDK4) and cyclin D1. These latter protein substitute for LT. HCT-116, A549, Calu-1, and MIA PaCa-2 are tumor cells derived from cancers (colon, lung, lung and pancreatic, respectively) known to have activating mutations in RAS.

murine VDAC3 = biological target: T1, murine VDAC3 (Mus musculus, UniProt Q60931); assay: NADH oxidation assay in mitochondria from yeast expressing VDAC3; type: biochemical; settings: mitochondria from yeast expressing VDAC3 in place of yeast VDAC
T1 construct: expressed in transfected cells; host or cells: yeast (S. cerevisiae) with murine VDAC3 in place of yeast VDAC; isolated mitochondria
T1 sequence (Q60931 1-283): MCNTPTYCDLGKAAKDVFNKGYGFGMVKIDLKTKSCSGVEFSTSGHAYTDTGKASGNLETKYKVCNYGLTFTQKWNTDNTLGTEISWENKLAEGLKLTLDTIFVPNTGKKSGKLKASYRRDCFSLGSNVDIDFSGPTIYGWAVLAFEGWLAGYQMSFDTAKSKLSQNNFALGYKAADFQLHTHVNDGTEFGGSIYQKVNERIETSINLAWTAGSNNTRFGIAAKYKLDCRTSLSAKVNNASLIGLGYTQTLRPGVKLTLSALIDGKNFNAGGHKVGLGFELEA
Protocol: In certain embodiments, mitochondria can be purified from yeast that had been engineered to express murine or human VDAC3 in place of yeast VDAC.
Mitochondria were isolated from yeast expressing murine VDAC3 in place of yeast VDAC. The rate of NADH oxidation by an inner membrane NADH dehydrogenase was determined by measuring the change in NADH absorbance over time. Mitochondria with a disrupted outer membrane show an increased rate of NADH oxidation (red, shocked) compared to untreated mitochondria (green).
NADH oxidation in the mitochondria was measured by resuspending mitochondria isolated from yeast in R-buffer (0.65 M sucrose, 10 mM HEPES (pH 7.5), 10 mM KH2PO4, 5 mM KCl, 5 mM, MgCl2) to a final concentration of 100 μg/ml. Mitochondrial concentration was measured by dissolving mitochondria in 0.6% SDS and reading absorbance at 280 nm. The mitochondrial suspension was then incubated with 25 μM NADH, and the absorbance at 340 nm monitored over a 15 minute period. The assay was repeated in the presence of erastin. To assess mitochondrial intactness, a parallel assay was run in which mitochondria were hypotonically shocked prior to addition of NADH. The mitochondrial pellet was resuspended in dH2O and incubated on ice for 3 minutes to disrupt the outer mitochondrial membrane. 2× R-buffer was then added to restore normal osmotic conditions.

VDAC2 = biological target: T2, VDAC2 (Homo sapiens, UniProt P45880); assay: VDAC2 binding assay (competition with radiolabelled erastin A9); settings: competition with tritium-labeled erastin A9
T2 construct: hexahistidine (pET-15b, thrombin site) (N); made in house; host or cells: E. coli
T2 sequence (P45880 1-294): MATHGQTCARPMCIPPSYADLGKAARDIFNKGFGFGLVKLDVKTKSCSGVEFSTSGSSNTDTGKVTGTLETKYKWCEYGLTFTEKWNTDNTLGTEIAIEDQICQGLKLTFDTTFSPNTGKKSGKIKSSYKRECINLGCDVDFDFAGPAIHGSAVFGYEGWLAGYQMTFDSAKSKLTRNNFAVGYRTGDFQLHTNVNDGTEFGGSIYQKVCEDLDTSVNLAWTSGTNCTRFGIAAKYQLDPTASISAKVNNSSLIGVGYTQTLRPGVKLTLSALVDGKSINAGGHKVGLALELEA
Protocol: Given the interactions between erastin and VDAC using affinity-based target identification and VDAC functional assays, the direct binding of erastin to VDACs was investigated.
VDAC2 protein was isolated from E. coli using a modified version of the protocol originally described by Koppel et al. Bacterial cultures were grown in LB containing 50 mg/L ampicillin to an OD of 0.6, and induced using […] IPTG overnight. Cultures were harvested by centrifugation at 6000×g for 10 min. The pellet was then washed with dH2O and resuspended in buffer (20% sucrose, 20 mM Tris, pH 8.0, […] lysozyme) and incubated at 25° C. for 10 minutes. The lysate was then sonicated for 2×30 seconds and centrifuged at 15000×g for 20 minutes. The pellet was resuspended in resuspension buffer (4.5 M guanidine-HCl, 0.1M NaCl, 20 mM Tris, pH 8.0) and incubated for 1 hour at 25° C. The suspension was then centrifuged (20 minutes, 15000×g), and the supernatant was loaded on a NI-NTA Superflow column (Qiagen) pre-equilibrated with 5 volumes of resuspension buffer. The column was washed with 5 column volumes of resuspension buffer containing 10 mM imidazole. The protein was then eluted using resuspension buffer containing 225 mM imidazole. The eluate was dialysed against 0.1 M NaCl, 20 mM Tris, pH 8.0, and 2% LDAO (Fluka) overnight, and then concentrated via centrifugation to 4 mg/mL.
To assay direct binding of erastin analogs, 40 μg of purified VDAC2 was resuspended in 100 μL of Binding Buffer (25 mM HEPES, pH 8.0, 0.1% BSA, 7 mM MgCl2, 15 mM NaCl), and incubated in the presence of 20 μM radiolabelled erastin A9 and erastin A9 or erastin A8 for 15 minutes. The mixture was then deposited onto Protran BA85 0.45 μM binding filters (Whatman) using vacuum filtration. The filter was rinsed 5 times with 1 mL wash buffer (25 mM HEPES, 0.1% BSA), and then incubated in 5 mL scintillation liquid (Cytoscint, MP Biomedicals). Radioactivity was detected on a LKB Wallac 1211 RACKBETA Liquid Scintillation Counter.

PARP1 = PARP1 cleavage (western blot); type: cell-based, human; settings: BJ-TERT/LT/ST/RAS^V12 cells; staurosporine 1 μM 6 h, camptothecin 1 μM 18 h, erastin 20 μg/mL
Protocol: BJ-TERT/LT/ST/RAS^V12 tumor cells were seeded in six-well dishes, incubated overnight at 37° C. with 5% CO2 and were treated with nothing (NT), staurosporine (ST, 1 μM) for 6 h, camptothecin (C, 1 μM) for 18 h, or erastin (20 μg/mL) for the indicated time, lysed and analyzed by western blot with an anti-PARP1 antibody. A relatively high concentration of erastin was used to ensure loss of PARP cleavage was not due to a concentration-dependent effect.
BJ-TERT/LT/ST/RAS^V12 cells were seeded in polystyrene 100×20 mm dishes (Falcon/#353003) in 10 ml of media. Three million cells were seeded in each dish. After overnight incubation at 37° C. with 5% CO2, BJ-TERT/LT/ST/RAS^V12 cells were treated with nothing, staurosporine (1 μM) for 6 h, camptothecin (1 μM) for 18 h or erastin (20 μg/mL) for 6, 10, 12, 12.5, 13, 14, 18 or 26 h, and prepared for western blotting.

[2] = test system: BJ-TERT/LT/ST/RAS^V12 cells; assay: Annexin V staining; type: cell-based, human; settings: camptothecin 1 μM
Protocol: The percentage of cells in the indicated Ml region were 6%, 6%, and 38% in untreated, erastin-treated (9 μM), and camptothecin-treated (1 μM), respectively.

cytochrome c = assay: Cytochrome c release from mitochondria; type: cell-based, human; settings: BJ-TERT/LT/ST/RAS^V12 cells; staurosporine 1 μM or erastin 20 μg/mL, 6 h
Protocol: BJ-TERT/LT/ST/RAS^V12 cells were seeded in polystyrene 100×20 mm dishes in 10 ml media. After overnight incubation at 37° C. with 5% CO2, the cells were treated with nothing (NT), staurosporine (ST, 1 μM) or erastin (20 μg/mL) for 6 h, washed with 10 mL ice-cold PBS and lysed by passage through a 25-gauge needle (five strokes). Cell lysates were centrifuged at 1850 rpm for 5 min at 4° C. to remove the nuclear fraction. Mitochondria were removed from the soluble cytosolic fraction by pelleting at 10,000 rpm. Supernatant and mitochondrial pellets were solubilized in SDS-PAGE loading buffer and analyzed by western blot using anti-cytochrome c and pan-VDAC antibodies and IR-dye-linked secondary antibodies. VDACs are mitochondrial proteins, so their absence in the cytosolic lane indicates effective separation of cytosol (C) from mitochondria (M). Fluorescence was detected on a LI-COR Odyssey infrared scanner.
For the cytochrome c release assay, cells were washed with 10 mL of ice-cold PBS, suspended in 120 μL of buffer (300 mM sucrose, 0.1% BSA, 10 mM HEPES, pH 7.5, 10 mM KCl, 1.5 mM MgCl2, 1 mM EGTA, 1 mM EDTA, 1 mM dithiothreitol, 2 mM phenylmethanesulfonyl fluoride and 1 protease inhibitor tablet (Roche)) and incubated on ice for 15 min. […] Supernatant and mitochondrial pellets were solubilized in SDS-PAGE loading buffer and analyzed by western blotting.

[3] = test system: BJ-TERT/LT/ST/RAS^V12 cells; assay: Cell death, viable cells counted using a hemacytometer; type: cell-based, human; settings: 13 μM erastin A1, 23 μM antimycin, 126 μM 2-methoxyestradiol or the combinations
[4] = test system: BJ-TERT/LT/ST/RAS^V12 cells; assay: Suppression of erastin-induced cell death (suppressor screen and follow-up); type: cell-based, human; settings: co-treatment with erastin

Compound: CCOc1ccccc1-n1c(C(C)N2CCN(C(C)=O)CC2)nc2ccccc2c1=O (centres unmarked) [erastin A8, 2-[1-(4-Acetyl-piperazin-1-yl)-ethyl]-3-(2-ethoxy-phenyl)-3H-quinazolin-4-one]
- Selective lethality / activity of erastin analog [1]: inactive
- Rate of NADH oxidation / permeability of outer mitochondrial membrane to NADH (murine VDAC3): had no effect on mitochondrial membrane permeability
- Direct binding to VDAC2 (VDAC2): unlike the inactive erastin A8, directly binds VDAC2

Compound: CC[C@@]1(O)C(=O)OCc2c1cc1n(c2=O)Cc2cc3ccccc3nc2-1 [camptothecin, reference compound]
- PARP1 cleavage (PARP1): degraded
- percentage of cells in M1 region (Annexin V staining) [2]: 38%

Compound: CN[C@@H]1C[C@H]2O[C@@](C)([C@@H]1OC)n1c3ccccc3c3c4c(c5c6ccccc6n2c5c31)C(=O)NC4 [staurosporine, reference compound]
- PARP1 cleavage (PARP1): cleaved from 110 kD to 85 kD
- Cytochrome c release from mitochondria (cytochrome c): released

Compound: antimycin
- Cell death (%) [3]: 51%
- Effect on erastin-induced cell death [4]: partially suppressed erastin-induced cell death

Compound: COc1cc2c(cc1O)CC[C@@H]1[C@@H]2CC[C@]2(C)[C@@H](O)CC[C@@H]12 [2-ME, 2-methoxyestradiol]
- Cell death (%) [3]: 66%
- Effect on erastin-induced cell death [4]: partially suppressed erastin-induced cell death
